From US20090233796A1, “HERBICIDAL COMPOSITION” (SYNGENTA CROP PROTECTION, INC., priority 2004, published 2009) come the findings set out here.

Type in all cases: in vivo
One experiment relates to CYNODON DACTYLON
Kind of experiment: Compound (A) with glyphosate, weed plots. The settings on record: 840 g/ha; 82 DAA; No. 2.1. An excerpt: (§1) The compositions were formulated as an emulsifyable concentrate (EC).
(§2) The results in the table under each application are the percentage of the plants that were killed.

Experiment [1] relates to DIGITARIA SANGUINALIS
Kind of experiment: Compound (A) with glyphosate, weed plots. The settings on record: 840 g/ha; 52 DAA; No. 2.2.
Text: as §1, §2

The test system of another experiment is HORDEUM PUSILLUM
Kind of experiment: Compound (A) with glyphosate, weed plots. The settings on record: 840 g/ha; 13 DAA; No. 2.6.
Text: as §1, §2

For a further experiment, the system named is ABUTILON THEOPHRASTI
Put plainly: Compound (A) with nicosulfuron, weed plots. The settings on record: 35 g/ha; 27 DAA; No. 3.13. As for the experimental part: (§3) In these tests, various weeds were treated with nicosulfuron alone at a rate equivalent to 35 g per hectare, […] and Compound (A) at rates equivalent to the sum of these. The compositions were formulated as an emulsifyable concentrate (EC).
as §2

For another experiment, the system named is AMBROSIA TRIFIDA. Put plainly: Compound (A) with nicosulfuron, weed plots. The settings on record: 35 g/ha; 28 DAA; No. 3.15. As for the experimental part: as §3, §2
The subject of another experiment is BRACHIARIA PLATYPHYLLA
Put plainly: Compound (A) with nicosulfuron, weed plots. The settings on record: 35 g/ha. As for the experimental part:
as §3, §2

The next experiment concerns CYPERUS ESCULENTUS
Kind of experiment: Compound (A) with nicosulfuron, weed plots. The settings on record: 35 g/ha. The protocol:
as §3, §2

Another experiment has as its system C[…]. Put plainly: Compound (A) with nicosulfuron, weed plots. The settings on record: 35 g/ha; 5 DAA; No. 3.8. As for the experimental part:
as §3, §2

Experiment [2] deals with DIGITARIA SANGUINALIS
Kind of experiment: Compound (A) with nicosulfuron, weed plots. The settings on record: 35 g/ha. As for the experimental part:
as §3, §2

Another experiment relates to IPOMOEA SP. Put plainly: Compound (A) with nicosulfuron, weed plots. The settings on record: 35 g/ha; 5 DAA; No. 3.10. The protocol:
as §3, §2

The test system of the next experiment is SESBANIA EXALTATA
Kind of experiment: Compound (A) with nicosulfuron, weed plots. The settings on record: 35 g/ha. As for the experimental part:
as §3, §2

The test system of the next experiment is SETARIA SP. Put plainly: Compound (A) with nicosulfuron, weed plots. The settings on record: 35 g/ha; 21 DAA; No. 3.4. The protocol:
as §3, §2

The test system of a further experiment is SETARIA VIRIDIS. Put plainly: Compound (A) with nicosulfuron, weed plots. The settings on record: 35 g/ha; 4 DAA; No. 3.11. As for the experimental part:
as §3, §2

Another experiment concerns […]. Put plainly: Compound (A) with nicosulfuron, weed plots. The settings on record: 35 g/ha; 58 DAA; No. 3.12. The protocol: as §3, §2
The test system of another experiment is COMMELINA SP. Put plainly: Compound (A) with nicosulfuron, weed plots. The settings on record: 35 g/ha.
Text: In these tests, […] and Compound (A) at rates equivalent to the sum of these. The compositions were formulated as an emulsifyable concentrate (EC).
as §2

The test system of experiment [3] is Euphorbia. Kind of experiment: Compound (A) with primisulfuron, weed plots. The settings on record: 45 DAA, Trial 3.20. An excerpt: (§4) In these tests, […] and Compound (A) at rates equivalent to the sum of these. The compositions were formulated as an emulsifiable concentrate (EC).
(§5) The results in the tables under each application are the percentage of the plants that were killed.

Another experiment has as its system Ipomoea. Put plainly: Compound (A) with primisulfuron, weed plots. The settings on record: 44 DAA, Trial 3.21. The protocol:
In these tests, various weeds were treated with primisulfuron alone at a rate equivalent to 35 g per hectare, […] and Compound (A) at rates equivalent to the sum of these. The compositions were formulated as an emulsifiable concentrate (EC).
as §5

A further experiment relates to Corn. Put plainly: Compound (A) with prosulfuron, weed plots. The settings on record: 13 DAA, No. 3.26.
Text: as §4, §5

In another experiment the test system is Galium. Put plainly: Compound (A) with prosulfuron, weed plots. The settings on record: 13 DAA, No. 3.24.
Text: as §4, §5

The subject of a further experiment is Brachiaria. Put plainly: Compound (A) with prosulfuron, weed plots. The settings on record: 13 DAA, No. 3.27. The protocol:
(§6) In these tests, various weeds were treated with prosulfinuron alone at a rate equivalent to 35 g per hectare, […] and Compound (A) at rates equivalent to the sum of these. The compositions were formulated as an emulsifiable concentrate (EC).
as §5

The test system of experiment [4] is Euphorbia. Put plainly: Compound (A) with prosulfuron, weed plots. The settings on record: 13 DAA, No. 3.28. As for the experimental part:
as §6, §5

For a further experiment, the system named is Rice. Put plainly: Compound (A) with prosulfuron, weed plots. The settings on record: 13 DAA, No. 3.29. The protocol:
as §6, §5

The subject of the next experiment is Veronica. Put plainly: Compound (A) with prosulfuron, weed plots. The settings on record: 13 DAA, No. 3.25. The protocol:
as §6, §5

For a further experiment, the system named is Wheat. Put plainly: Compound (A) with prosulfuron, weed plots. The settings on record: 13 DAA, No. 3.30. As for the experimental part:
as §6, §5

The next experiment has as its system Cyperus. Kind of experiment: Compound (A) with sulcotrione, weed plots. The settings on record: 14 DAA, Trial 5.1. The protocol:
In these tests, various weeds were treated with sulcotrione alone at an application rate equivalent to 1420 g per hectare, […] and Compound (A) at rates equivalent to the sum of these. The compositions were formulated as an emulsifyable concentrate (EC).
as §2

Molecules are shown by their SMILES.

With `O=C(O)CNCP(=O)(O)O` [Glyphosate, glyphosate, reference compound], the “percentage of the plants that were killed” value (“percentage” below) was found to be 0% with CYNODON DACTYLON, 0% in the experiment with DIGITARIA SANGUINALIS [1] and 30% with HORDEUM PUSILLUM.
Consider `COc1cc(OC)nc(NC(=O)NS(=O)(=O)c2ncccc2C(=O)N(C)C)n1` [Nicosulfuron, nicosulfuron, reference compound], for which the “percentage” value was determined as 50% in the experiment with ABUTILON THEOPHRASTI; 0% in the experiment on AMBROSIA TRIFIDA; 35% in the experiment with BRACHIARIA PLATYPHYLLA (24 DAA, No. 3.16); 30% in the experiment with BRACHIARIA PLATYPHYLLA (30 DAA, No. 3.17); 0% in the experiment with CYPERUS ESCULENTUS (7 DAA, No. 3.7); 0% in the experiment with CYPERUS ESCULENTUS (12 DAA, No. 3.9). Besides, the “percentage” value in the experiment with C[…]. was 50%; in the experiment on DIGITARIA SANGUINALIS [2] (4 DAA, No. 3.6), 10%; in the experiment with DIGITARIA SANGUINALIS [2] (5 DAA, No. 3.14) it was 0%; in the experiment with DIGITARIA SANGUINALIS [2] (21 DAA, No. 3.5), 70%; with IPOMOEA SP. it was 0%; in the experiment with SESBANIA EXALTATA (44 DAA, No. 3.3) it was 10%. The “percentage” value is recorded as 0% in the experiment on SESBANIA EXALTATA (45 DAA, No. 3.2); 70% in the experiment with SETARIA SP.; 20% in the experiment on SETARIA VIRIDIS; 0% in experiment […]; 0% with COMMELINA SP. (10 DAA, No. 3.18); 0% in the experiment on COMMELINA SP. (17 DAA, No. 3.19).
`O=C(Nc1nc(OC(F)F)cc(OC(F)F)n1)NS(=O)(=O)c1ccccc1C(=O)O` [Primisulfuron, primisulfuron, reference compound]: the “percentage” value in the experiment on Euphorbia [3] (7.5 g/ha) worked out at 10%; with Euphorbia [3] (15 g/ha) it was 30%; in the experiment on Euphorbia [3] (30 g/ha), 50%; with Ipomoea (7.5 g/ha) it was 0%; in the experiment on Ipomoea (15 g/ha) it was 20%; in the experiment with Ipomoea (30 g/ha), 25%.
In the case of `COc1nc(C)nc(NC(=O)NS(=O)(=O)c2ccccc2CCC(F)(F)F)n1` [Prosulfuron, prosulfuron, reference compound], the “percentage” value is 0% with Corn (7.5 g/ha); 0% in the experiment with Corn (15 g/ha); 0% in the experiment with Corn (30 g/ha); 30% in the experiment on Galium (7.5 g/ha); 40% in the experiment with Galium (15 g/ha); 70% in the experiment on Galium (30 g/ha). Also, the “percentage” value with Brachiaria (7.5 g/ha) turned out to be 0%; with Brachiaria (15 g/ha) it was 0%; with Brachiaria (30 g/ha), 0%; with Euphorbia [4] (7.5 g/ha), 20%; in the experiment with Euphorbia [4] (15 g/ha), 20%; in the experiment on Euphorbia [4] (30 g/ha) it was 30%. Besides, the “percentage” value in the experiment with Rice (7.5 g/ha) is 0%; in the experiment on Rice (15 g/ha) it was 0%; with Rice (30 g/ha), 0%; in the experiment with Veronica (7.5 g/ha), 0%; with Veronica (15 g/ha) it was 0%; with Veronica (30 g/ha), 15%. Besides, the “percentage” value with Wheat (7.5 g/ha), in the experiment with Wheat (15 g/ha) and in the experiment on Wheat (30 g/ha) was 0% throughout.
For `CS(=O)(=O)c1ccc(C(=O)C2C(=O)CCCC2=O)c(Cl)c1` [Sulcotrione, sulcotrione], the “percentage” value in the experiment with Cyperus (50 g/ha) stood at 25%; in the experiment on Cyperus (100 g/ha), 30%; with Cyperus (200 g/ha), 30%.
